{"source": "paper PMC7844219", "about": "“Antifibrotic effect of novel neutrophil gelatinase-associated lipocalin inhibitors in cardiac and renal disease models” (Scientific Reports, 2021)", "key": {"CKD mouse model": {"tested_on": "CKD mouse model", "assay": "Chronic kidney disease (CKD) mouse model, 5/6 (subtotal) nephrectomy", "assay_type": "in vivo", "parameters": "Plasma creatinine level: unit not given here", "conditions": "CKD mice", "procedure": "Animals were housed in a climate-controlled facility with a 12-h/12-h light/dark cycle and provided free access to food and water. Experiments were approved by the Darwin ethics committee of Sorbonne University, and conducted according to the INSERM animal care and use committee guidelines. The NGAL inhibitor GP1 was incorporated in regular chow (A04, Safe, Augy, France) at the dose of 625 mg GP1/kg of chow to achieve a low dose of 100 mg/kg/day of GP1 administered to the mice (based on a daily consumption of 4 g of chow).\nLV hemodynamic was assessed as described previously. Briefly, mice were anesthetized (chloral 320 mg/kg, IP) and the carotid artery cannulated with a pressure–volume catheter (SPR839, Millar-Instruments, USA) and the catheter was advanced into the LV. Pressure–volume loops were obtained at baseline and during loading by gently occluding the abdominal aorta. LV end-systolic and end-diastolic pressures, dP/dtmax/min, LV relaxation constant tau and were measured/calculated with IOX software (EMKA, France). Systolic BP was measured by tail-cuff plethysmography in trained conscious mice at weeks 8–10 using a BP2000 Visitech model. BP was measured every day in the same room at the same hour for 5 consecutive days. The BP measurements (expressed as mmHg) presented are the averages of the last 3 days.\nChronic kidney disease (CKD) was induced by subtotal nephrectomy in 8-weeks-old male mice (25–26 g). All surgeries were performed under ketamine/xylazine anaesthesia. Briefly, the left kidney was exposed, and the upper and lower poles were tied with a poly-glycolic acid suture line. The peritoneum and skin were then sutured, and the animals were returned to their individual cages. After 1 week of recovery, the second kidney was removed. Removal of the second kidney represents T0. Sham mice were subjected to the same surgical procedures but neither renal poles nor the right kidney were removed. Mice were monitored for any sign of distress, and those observed to be experiencing severe, unrelievable pain were euthanized. Renal failure was assessed by the measure of plasma creatinine and urea with an automatic analyser (Konelab 20i; Thermo Fisher Scientific, Vernon Hills, IL) at weeks 4 and 8 post-Nx.\nIn the MI model, heart was harvested after hemodynamics and the atria and the ventricles were separated and weighed individually. A section of the left ventricle was immersed in Bouin fixative solution. In the CKD model, kidneys were harvested and a section was immersed in paraformaldehyde fixative solution. After fixation, the sections were dehydrated and embedded in paraffin. From these sections, 5-μm thick histologic slices were obtained and were stained with Sirius Red. For the measurement of cardiac or renal collagen density, slides were examined and photographed under a light microscope (Zeiss) at 40× magnification. Collagen content was calculated as percentage of collagen area to total area of the image. Perivascular collagen was excluded from the analysis. For tubular lesions scoring, kidney slides were stained with Periodic Acid-Schiff kit (Sigma) and the score of tubules with injury (epithelial cell necrosis and detachment, and tubular dilation) was analyzed blinded to the experimental groups.\nFrozen tissues (kidneys, heart) were homogenized in TRIzol (Life Technologies, Illinois, USA) using FastPrep beads (MP-Bio, CA, USA). cDNAs were generated using the Superscript II reverse transcriptase kit (Invitrogen,NY, USA), and qPCR was performed as previously described. Briefly, transcript levels were analysed in a CFX396 apparatus (Biorad). The reactions were performed in duplicate for each sample using the IQ SYBR Green supermix Kit (Biorad,CA, USA). To normalize gene expression, the geometric mean of multiple internal reference genes were used (RS16, Ubc, Hprt and Gapdh for mice experiments). Values in control conditions were set as 1 for each gene. The sequences of the specific primers are detailed in Table S8."}, "CYP3A4": {"molecular_target": "T1, CYP3A4 (Homo sapiens, UniProt P08684)", "T1 construct": "purchased Thermo Fisher Scientific", "T1 sequence (P08684 whole entry)": "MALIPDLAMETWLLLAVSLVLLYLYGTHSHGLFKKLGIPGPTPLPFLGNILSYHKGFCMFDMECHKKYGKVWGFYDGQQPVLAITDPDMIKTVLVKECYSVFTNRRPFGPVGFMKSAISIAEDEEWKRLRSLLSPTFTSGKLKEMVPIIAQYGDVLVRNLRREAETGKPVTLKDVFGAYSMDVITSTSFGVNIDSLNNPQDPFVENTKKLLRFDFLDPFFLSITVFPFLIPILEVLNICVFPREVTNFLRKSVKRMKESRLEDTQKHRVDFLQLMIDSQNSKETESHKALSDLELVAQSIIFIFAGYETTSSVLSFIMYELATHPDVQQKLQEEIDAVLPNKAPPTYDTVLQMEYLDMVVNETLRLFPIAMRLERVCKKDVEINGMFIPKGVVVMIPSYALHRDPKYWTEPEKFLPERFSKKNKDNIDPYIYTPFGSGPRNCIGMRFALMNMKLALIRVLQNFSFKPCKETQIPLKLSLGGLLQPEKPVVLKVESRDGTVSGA", "assay": "CYP3A4 inhibition assay (Vivid CYP3A4 assay)", "assay_type": "in vitro ADME", "procedure": "Several parameters have been evaluated to determine ADME-Tox profile of the compounds. Two specific toxicity assays have been performed to assess hepatoxicity and cardiotoxicity. Hepatotoxicity was evaluated in isolated hepatocytes from swiss mice and determined by the thiazolyl blue tetrazolium bromide colorimetric assay (sigma, St Louis, MO, USA). Cardiotoxicity was evaluated using the commercially available Predictor hERG fluorescence polarization kit (Thermo Fisher Scientific, Illinois, USA). Several absorption, distribution, metabolism, and excretion (ADME) assays have been carried out. The following experiments were undertaken: stability in human microsomes, binding to human plasma protein, and CYP3A4 inhibition assay (Vivid CYP3A4 assay, Thermo Fisher Scientific, Illinois, USA). Physico-chemical properties were also assessed such as aqueous solubility and chemical stability."}, "[1]": {"tested_on": "TGFβ-treated mouse kidney fibroblasts", "assay": "Specificity: gene expression in TGFβ-treated mouse kidney fibroblasts", "assay_type": "cell-based", "conditions": "10 µM, Fig. S6", "procedure": "Primary human cardiac fibroblasts (HCF) were obtained from Promocell (Heidelberg, Germany) and maintained in Fibroblast Media 3 following manufacturer’s instructions (Promocell). Cells were used between passages 5 and 7. Cells were stimulated with recombinant hNGAL (500 ng/mL, R&D Systems) or with TGFβ (10 ng/mL, R&D Systems) for 24 h. To assess cell proliferation the MTT test was used following provider’s instructions (Roche). For protein analysis. Primary Mouse Kidney Fibroblasts (MKF) were isolated from Wild Type (WT) mice. Briefly, 8 weeks old mice were sacrificed by cervical dislocation and kidneys were cleaned and rinsed in cold DPBS (Dulbecco's Phosphate-Buffered Saline). The renal cortex was minced and incubated in Dulbecco’s modified eagle medium/Nutrient mixture F-12 (DMEM/F12, Sigma) containing 1 mg/mL collagenase A (Roche) during 25 min at 37 °C. The digestion was inactivated by adding culture medium (DMEM/F12 + 10% FBS) then the cell suspension was passed through a 100-μm cell strainer. […]\n(§1) Frozen tissues (kidneys, heart) were homogenized in TRIzol (Life Technologies, Illinois, USA) using FastPrep beads (MP-Bio, CA, USA). cDNAs were generated using the Superscript II reverse transcriptase kit (Invitrogen,NY, USA), and qPCR was performed as previously described. Briefly, transcript levels were analysed in a CFX396 apparatus (Biorad). […]"}, "mNGAL": {"molecular_target": "T2, mNGAL (Mus musculus, UniProt P11672)", "T2 construct": "purchased R&D Systems", "T2 sequence (P11672 21-200)": "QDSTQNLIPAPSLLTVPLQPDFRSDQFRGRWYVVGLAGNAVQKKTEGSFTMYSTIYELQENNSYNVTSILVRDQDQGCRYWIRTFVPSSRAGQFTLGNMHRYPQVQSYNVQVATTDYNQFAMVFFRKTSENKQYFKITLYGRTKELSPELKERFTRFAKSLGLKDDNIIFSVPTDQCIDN", "assay": "mNGAL-induced gene expression in primary mouse kidney fibroblasts (RT-PCR)", "assay_type": "cell-based", "procedure": "Primary human cardiac fibroblasts (HCF) were obtained from Promocell (Heidelberg, Germany) and maintained in Fibroblast Media 3 following manufacturer’s instructions (Promocell). Cells were used between passages 5 and 7. Cells were stimulated with recombinant hNGAL (500 ng/mL, R&D Systems) or with TGFβ (10 ng/mL, R&D Systems) for 24 h. To assess cell proliferation the MTT test was used following provider’s instructions (Roche). For protein analysis. Primary Mouse Kidney Fibroblasts (MKF) were isolated from Wild Type (WT) mice. Briefly, 8 weeks old mice were sacrificed by cervical dislocation and kidneys were cleaned and rinsed in cold DPBS (Dulbecco's Phosphate-Buffered Saline). The renal cortex was minced and incubated in Dulbecco’s modified eagle medium/Nutrient mixture F-12 (DMEM/F12, Sigma) containing 1 mg/mL collagenase A (Roche) during 25 min at 37 °C. The digestion was inactivated by adding culture medium (DMEM/F12 + 10% FBS) then the cell suspension was passed through a 100-μm cell strainer. After centrifugation, the pellet (containing MKF) was diluted with culture medium then plated in 75 cm^2 culture flask. After 24 h MKF were washed with DPBS before replacement of fresh culture medium. Thereafter, culture medium was changed every 48 h. Once 70–80% confluent, MKF were trypsinized and plated in 12 or 6-well plates. For experimental use, MKF were starved with culture medium containing only 3% FBS. MKF were treated with mNGAL (500 ng/mL, R&D Systems) or with TGFβ (10 ng/mL, R&D Systems) for 6 h for gene expression analysis.\nas §1, with “(Biorad). The reactions were performed in duplicate for each sample using the IQ SYBR Green supermix Kit (Biorad,CA, USA).” for “(Biorad).”"}}, "data": [{"compound": "CC(=O)c1cccc(S(=O)(=O)NCc2ccccc2-n2cccn2)c1", "note": "[GPZ614741]", "values": [{"measurement": "KW/TL (kidney weight/tibia length)", "setting": "CKD mouse model; GP1 100 mg/kg/day, two months, CKD untreated 11.5 ± 0.42", "result": "11.3 ± 0.23", "unit": "mg/mm"}, {"measurement": "Plasma urea level", "setting": "CKD mouse model; GP1 100 mg/kg/day, two months, CKD untreated 15.2 ± 0.36", "result": "16.74 ± 1.86", "unit": "mM"}, {"measurement": "Plasma creatinine level", "setting": "CKD mouse model; GP1 100 mg/kg/day, two months, CKD untreated 21.5 ± 1.45", "result": "20.4 ± 1.54"}, {"measurement": "SBP (systolic blood pressure)", "setting": "CKD mouse model; GP1 100 mg/kg/day, two months, CKD untreated 139.3 ± 2.22", "result": "122.1 ± 2.58", "unit": "mmHg"}, {"measurement": "Increased expression of profibrotic markers (Col I, fibronectin, αSMA)", "setting": "CKD mouse model; kidney mRNA, Fig. 4C", "result": "blunted"}, {"measurement": "Functional parameters: plasma levels of urea or creatinine, in words", "setting": "CKD mouse model; one and two months after CKD induction", "result": "no impact"}, {"measurement": "Increase in blood pressure, in words", "setting": "CKD mouse model; two months of GP1", "result": "prevented the increase"}, {"measurement": "Renal tubulointerstitial fibrosis (Sirius red)", "setting": "CKD mouse model; two months of GP1, Fig. 4A", "result": "strong antifibrotic effect"}, {"measurement": "Tubular injury (tubular lesion scoring, PAS)", "setting": "CKD mouse model; × 3.1 in CKD vs. Sham, Fig. 4B", "result": "prevented"}, {"measurement": "Processing by CYP3A4, in words", "setting": "CYP3A4", "result": "partially processed by CYP3A4"}, {"measurement": "CyP 3A4 Inhibition % (100= no inhibition)", "setting": "CYP3A4; Table S5", "result": "72.21 ± 1.94", "unit": "%"}, {"measurement": "Effect on TGFβ-induced gene expression of Col I, Fibronectin and IL6", "setting": "[1]", "result": "no inhibitory effect"}, {"measurement": "NGAL-induced collagen I expression", "setting": "mNGAL; 1 µM, mouse kidney fibroblasts, Fig. S4", "result": "prevented"}, {"measurement": "mNGAL-induced expression of profibrotic markers (Col I, fibronectin, αSMA)", "setting": "mNGAL; 10 µM, MKF, mRNA, Fig. 3A", "result": "inhibited"}, {"measurement": "mNGAL-induced expression of inflammatory markers (IL6, MCP1)", "setting": "mNGAL; 10 µM, MKF, mRNA, Fig. 3B", "result": "inhibited"}]}]}
